Measurements published in US20230149362A1, “NEW CAPSULE COMPOSITION FOR PERORAL ADMINISTRATION” (Vicore Pharma AB, priority 2020, published 2023).
Structures can show the parent of a compound that is named as a salt.

Key:
Type in all cases: physicochemical
[1] = Compatibility study of C21 sodium salt with lipid-based ingredients and capsule shell components
Description: Experiments were then performed to assess the chemical compatibility of C21 with selected pharmaceutically-acceptable lipid-based ingredients (some, but not all, of which were also studied in Example 3 above), as well as the main soft shell gelatin capsule components, under accelerated conditions.
The compatibility study was performed by storing at 40° C. and 75% RH for eight weeks in a climatic chamber (Weiss Technik), during which an analysis of impurities formed was performed after four (T4) and eight (T8) weeks.
An additional experiment was performed by storing for eight weeks at room temperature in the laboratory (with controlled temperature and humidity).
Testing of C21 sodium salt in the absence of excipients was performed as a reference.
In Table 6, the generic names and the sources of the various excipients are the same as presented above, e.g. in Table 5.
Samples A0 to A16 and B1 were prepared in 20 mL glass vials, with two preparations being prepared for each time point. Samples C1 to C16 and D1 were prepared in 20 mL glass vials, with one preparation for each time point.
Assay and impurity evaluations were made using the same Waters UPLC Acquity system and essentially the same chromatographic conditions as described in Example 3 above.
The impurity analysis is summarized in Table 7 below, in which C21 assay values (I) and impurity values (II) are presented as % recovery and represent the average value obtained for each mixture on the two sample preparations.

[2] = Stability of aqueous solutions of C21 under four storage conditions (sensitivity to light); settings: for Amount of Free C21, % of initial / Solution pH: sodium salt solution
Description: The stability of free C21 in 0.9% NaCl pH 9.4 was investigated.
Solutions of 1 mg/mL of C21 were studied for four weeks under four different storage conditions. The solution was filtered through a 0.22 sterile syringe filter to minimize bacterial growth during the stability test. The samples were analysed by HPLC for purity.
The results are summarised in Table 3 below, in which the amount of C21 is given as a percentage of the initial amount of drug. Solution pHs were also measured and are shown within parenthesis in Table 3.
The stability of the sodium salt of C21 was also investigated under the same storage conditions.
At the time for analysis of the one week samples, it was noted that the heating cabinet for storage of samples at 40° C. was broken. In view of this, these samples were thereafter kept at room temperature for three days.

[3] = Solubility of C21 sodium salt in lipid-based excipients (UPLC)
Description: C21 sodium salt (RISE AB, Södertälje, Sweden) was mixed with various potential carriers in the proportions described in Table 5 below (mg of C21 per gram of excipient) and absolute solubility of C21 was determined, two and five days after mixing.
The procedure was carried out by first weighing around 2.955 g of each excipient into a 20 mL headspace vial. Then, 0.045 g of C21 was added to each vial to reach a starting concentration of 15 mg/g. A magnetic stirrer was added into each mixture to stir the dispersion during the entire study (at around 300 rpm).
Solubility was determined at room temperature in general, although some of the excipients listed below (those marked with an asterisk) are solid at room temperature, in which case solubility was determined at 60° C.
The mixtures were observed over time to confirm excipient saturation. In the case of complete C21 solubilization (i.e. no particles were visible), addition of C21 was performed until a maximum API concentration of 100 mg/g was attained.
After confirming that the saturation point had been reached, or after reaching the maximum API concentration of 100 mg/g, sampling of the mixtures were performed after two (T2) and five (T5) days of stirring.
At each tirnepoint, and for each excipient, sampling was performed. The samples were filtered prior to assaying to determine the C21 sodium salt solubility in each excipient.
Two analytical samples were prepared from the filtrate obtain a mean value.
A Waters UPLC Acquity system (CSH C18; 100×2.1 mm×1.7 μm) with a UV and a DED detector was used to quantitatively determine solubility. The following chromatograhpic conditions were applied: (A) mobile phase water with 003% TFA, (6) acetonitrile with 0.03% TFA, with gradient, flow rate 0.5 mL/min, temperature 40° C., run time 24 minutes, injection volume 2 μL at room temperature.

[4] = T4 (four weeks), 40° C. and 75% RH
[5] = T8 (eight weeks), 40° C. and 75% RH
[6] = T8 (eight weeks), Ambient temp.
[7] = 40° C., dark, 1 week, heating cabinet found broken

C21 assay values (I) ([1]; T0): 98.2 % recovery | impurity values (II) ([1]; T0): 0.24 % recovery | C21 assay values (I) [1, 4]: 102.2 % recovery | impurity values (II) [1, 4]: 0.23 % recovery | C21 assay values (I) [1, 5]: 101.3 % recovery | impurity values (II) [1, 5]: 0.25 % recovery | C21 assay values (I) [1, 6]: 102.0 % recovery | impurity values (II) [1, 6]: 0.24 % recovery | light-induced degradation ([2]; aqueous solution, RT/light): light-induced degradation occurs | Amount of Free C21, % of initial ([2]; 5° C., dark, 1 week): 108 % of initial | Solution pH ([2]; 5° C., dark, 1 week): (8.5) | Amount of Free C21, % of initial ([2]; 5° C., dark, 2 weeks): 113 % of initial | Solution pH ([2]; 5° C., dark, 2 weeks): (8.4) | Amount of Free C21, % of initial ([2]; 5° C., dark, 3 weeks): 113 % of initial | Solution pH ([2]; 5° C., dark, 3 weeks): (8.5) | Amount of Free C21, % of initial ([2]; 5° C., dark, 4 weeks): 112 % of initial | Solution pH ([2]; 5° C., dark, 4 weeks): (8.5) | Amount of Free C21, % of initial ([2]; 5° C., dark, Initial): 100 % of initial | Solution pH ([2]; 5° C., dark, Initial): (8.3) | Amount of Free C21, % of initial [2, 7]: 111 % of initial | Solution pH [2, 7]: (8.6) | Amount of Free C21, % of initial ([2]; 40° C., dark, 2 weeks): 111 % of initial | Solution pH ([2]; 40° C., dark, 2 weeks): (8.5) | Amount of Free C21, % of initial ([2]; 40° C., dark, 3 weeks): 109 % of initial | Solution pH ([2]; 40° C., dark, 3 weeks): (8.7) | Amount of Free C21, % of initial ([2]; 40° C., dark, 4 weeks): 118 % of initial | Solution pH ([2]; 40° C., dark, 4 weeks): (8.1) | Amount of Free C21, % of initial ([2]; 40° C., dark, Initial): 100 % of initial | Solution pH ([2]; 40° C., dark, Initial): (8.3) | Amount of Free C21, % of initial ([2]; RT, dark, 1 week): 115 % of initial | Solution pH ([2]; RT, dark, 1 week): (8.6) | Amount of Free C21, % of initial ([2]; RT, dark, 2 weeks): 110 % of initial | Solution pH ([2]; RT, dark, 2 weeks): (8.8) | Amount of Free C21, % of initial ([2]; RT, dark, 3 weeks): 111 % of initial | Solution pH ([2]; RT, dark, 3 weeks): (8.8) | Amount of Free C21, % of initial ([2]; RT, dark, 4 weeks): 112 % of initial | Solution pH ([2]; RT, dark, 4 weeks): (8.2) | Amount of Free C21, % of initial ([2]; RT, dark, Initial): 100 % of initial | Solution pH ([2]; RT, dark, Initial): (8.3) | Amount of Free C21, % of initial ([2]; RT, light, 1 week): 108 % of initial | Solution pH ([2]; RT, light, 1 week): (8.4) | Amount of Free C21, % of initial ([2]; RT, light, 2 weeks): 96 % of initial | Solution pH ([2]; RT, light, 2 weeks): (8.0) | Amount of Free C21, % of initial ([2]; RT, light, 3 weeks): 72 % of initial | Solution pH ([2]; RT, light, 3 weeks): (8.3) | Amount of Free C21, % of initial ([2]; RT, light, 4 weeks): 9 % of initial | Solution pH ([2]; RT, light, 4 weeks): (7.3) | Amount of Free C21, % of initial ([2]; RT, light, Initial): 100 % of initial | Solution pH ([2]; RT, light, Initial): (8.3) | C21 Mean Solubility T5 Assay ([3]; Fasted Simulated Intestinal Fluid (FaSSIF), five days, room temperature): 10.4 mg/g | C21 Mean Solubility T2 Assay ([3]; Fasted Simulated Intestinal Fluid (FaSSIF), two days, room temperature): 10.4 mg/g | C21 Mean Solubility T5 Assay ([3]; Fed Simulated Intestinal Fluid (FeSSIF), five days, room temperature): 0.6 mg/g | C21 Mean Solubility T2 Assay ([3]; Fed Simulated Intestinal Fluid (FeSSIF), two days, room temperature): 0.3 mg/g | C21 Mean Solubility T5 Assay ([3]; Gelucire 43/01, five days, 60° C.): 0.0 mg/g | C21 Mean Solubility T2 Assay ([3]; Gelucire 43/01, two days, 60° C.): 0.0 mg/g | C21 Mean Solubility T5 Assay ([3]; Gelucire 44/14, five days, 60° C.): 43.9 mg/g | C21 Mean Solubility T2 Assay ([3]; Gelucire 44/14, two days, 60° C.): 44.1 mg/g | C21 Mean Solubility T5 Assay ([3]; Glyceryl monolinoleate (Maisine CC), five days, room temperature): 60.4 mg/g | C21 Mean Solubility T2 Assay ([3]; Glyceryl monolinoleate (Maisine CC), two days, room temperature): 61.4 mg/g | C21 Mean Solubility T5 Assay ([3]; Glyceryl monooleate (Peceol), five days, room temperature): 82.2 mg/g | C21 Mean Solubility T2 Assay ([3]; Glyceryl monooleate (Peceol), two days, room temperature): 82.3 mg/g | solubility ([3]; Labrafil M2130CS, at 60° C.): around 14 mg/g | C21 Mean Solubility T5 Assay ([3]; Lauryl polyoxyl-6-glycerides (Labrafil M 2130 CS), five days, 60° C.): 13.5 mg/g | C21 Mean Solubility T2 Assay ([3]; Lauryl polyoxyl-6-glycerides (Labrafil M 2130 CS), two days, 60° C.): 13.9 mg/g | C21 Mean Solubility T5 Assay ([3]; Linoleoyl polyoxyl-6-glycerides (Labrafil M 2125 CS), five days, room temperature): 21.1 mg/g | C21 Mean Solubility T2 Assay ([3]; Linoleoyl polyoxyl-6-glycerides (Labrafil M 2125 CS), two days, room temperature): 22.0 mg/g | C21 Mean Solubility T5 Assay ([3]; Medium chain triglycerides (Miglyol 812N), five days, room temperature): 0.0 mg/g | C21 Mean Solubility T2 Assay ([3]; Medium chain triglycerides (Miglyol 812N), two days, room temperature): 0.0 mg/g | C21 Mean Solubility T5 Assay ([3]; Oleoyl polyoxyl-6-glycerides (Labrafil M 1944 CS), five days, room temperature): 20.1 mg/g | C21 Mean Solubility T2 Assay ([3]; Oleoyl polyoxyl-6-glycerides (Labrafil M 1944 CS), two days, room temperature): 19.5 mg/g | C21 Mean Solubility T5 Assay ([3]; Polyoxyethylene (20) sorbitan monooleate (Tween 80), five days, room temperature): 84.8 mg/g | C21 Mean Solubility T2 Assay ([3]; Polyoxyethylene (20) sorbitan monooleate (Tween 80), two days, room temperature): 85.2 mg/g | C21 Mean Solubility T5 Assay ([3]; Propylene glycol monocaprylate (Capryol PGMC), five days, room temperature): 7.1 mg/g | C21 Mean Solubility T2 Assay ([3]; Propylene glycol monocaprylate (Capryol PGMC), two days, room temperature): 7.1 mg/g | C21 Mean Solubility T5 Assay ([3]; Propylene glycol monolaurate (Lauroglycol 90), five days, room temperature): 12.4 mg/g | C21 Mean Solubility T2 Assay ([3]; Propylene glycol monolaurate (Lauroglycol 90), two days, room temperature): 12.4 mg/g | C21 Mean Solubility T5 Assay ([3]; Refined corn oil (Henry Lamotte), five days, room temperature): 0.0 mg/g | C21 Mean Solubility T2 Assay ([3]; Refined corn oil (Henry Lamotte), two days, room temperature): 0.0 mg/g | C21 Mean Solubility T5 Assay ([3]; Refined sesame oil (Henry Lamotte), five days of stirring, room temperature): 0.2 mg/g | C21 Mean Solubility T2 Assay ([3]; Refined sesame oil (Henry Lamotte), two days of stirring, room temperature): 0.2 mg/g | C21 Mean Solubility T5 Assay ([3]; Sorbitan monooleate (Montane 80), five days, room temperature): 61.5 mg/g | C21 Mean Solubility T2 Assay ([3]; Sorbitan monooleate (Montane 80), two days, room temperature): 61.6 mg/g | C21 Mean Solubility T5 Assay ([3]; Sorbitan trioleate (Span 85), five days, room temperature): 12.1 mg/g | C21 Mean Solubility T2 Assay ([3]; Sorbitan trioleate (Span 85), two days, room temperature): 15.1 mg/g | C21 Mean Solubility T5 Assay ([3]; Soya oil (Henry Lamotte), five days, room temperature): 0.0 mg/g | C21 Mean Solubility T2 Assay ([3]; Soya oil (Henry Lamotte), two days, room temperature): 0.0 mg/g | C21 Mean Solubility T5 Assay ([3]; Triacetin (Kollisolv GTA), five days, room temperature): 0.3 mg/g | C21 Mean Solubility T2 Assay ([3]; Triacetin (Kollisolv GTA), two days, room temperature): 0.2 mg/g | solubility in words ([3]; triglyceride-based excipients): essentially insoluble
Structure (SMILES): CCCCOC(=O)NS(=O)(=O)c1sc(CC(C)C)cc1-c1ccc(Cn2ccnc2)cc1 [C21 sodium salt, N-butyloxycarbonyl-3-(4-imidazol-1-ylmethylphenyl)-5-iso-butylthiophene-2-sulfonamide]
